Measured values as given in PubChem BioAssay AID248 (DTP/NCI, 2004).
Where “and” joins values, the source holds several entries; their conditions need not be identical. Equal entries are not always repeated. Inconclusive results and toxic doses are left out.

System: L1210 leukemia ip in BDF1 mice, survival T/C
Test: NCI In Vivo Anticancer Drug Screen. Data for tumor model L1210 Leukemia (intraperitoneal) in B6D2F1 (BDF1) mice
Settings: endpoint: mean survival time, higher = longer survival
Outline: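 Ratio derived from survival: compound-dosed mice over vehicle-dosed mice, all bearing a transplantable tumor.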

[1] = dose: 100.0 mg/kg/injection, schedule: Q04DX003 (ip), vehicle: acetone
[2] = dose: 200.0 mg/kg/injection, schedule: Q04DX003 (ip), vehicle: acetone

`Nc1ncnc2c1ncn2C1OC(CF)C(O)C1O` (stereo not given) was tested, and the T/C (dose: 50.0 mg/kg/injection, schedule: Q01DX009 (ip), vehicle: saline) was 101 % of control, the T/C (dose: 100.0 mg/kg/injection, schedule: Q01DX009 (ip), vehicle: saline) was 100 % of control and the T/C (dose: 200.0 mg/kg/injection, schedule: Q01DX009 (ip), vehicle: saline) was 114 % of control.
With `Cn1cnc([N+](=O)[O-])c1Sc1ncnc2c1ncn2C1OC(CO)C(O)C1O` (stereo not given) the T/C (dose: 18.0 mg/kg/injection, schedule: Q01DX009 (ip), vehicle: saline) was 100 % of control, the T/C (dose: 35.0 mg/kg/injection, schedule: Q01DX009 (ip), vehicle: saline) was 108 % of control and the T/C (dose: 75.0 mg/kg/injection, schedule: Q04DX003 (ip), vehicle: Klucel (hydroxypropylcellulose) (HPC)) was 121 % of control. For the same molecule, the T/C (dose: 110.0 mg/kg/injection, schedule: Q01DX009 (ip), vehicle: saline) was 152 % of control, the T/C (dose: 165.0 mg/kg/injection, schedule: Q01DX009 (ip), vehicle: saline) was 150 % of control and the T/C (dose: 176.0 mg/kg/injection, schedule: Q01DX009 (ip), vehicle: other) was 164 % of control. For the same molecule, the T/C (dose: 250.0 mg/kg/injection, schedule: Q01DX009 (ip), vehicle: saline) was 154 % of control and the T/C (dose: 300.0 mg/kg/injection, schedule: Q04DX003 (ip), vehicle: Klucel (hydroxypropylcellulose) (HPC)) was 156 % of control.
In the case of `CCOC(=O)Cc1cc(OC)c(OC)c(OC)c1`, the T/C [1] is reported as 98 % of control and the T/C [2] is reported as 94 % of control.
For `O=C(OC/C=C/CC(Cl)(Cl)Cl)C(Cl)(Cl)Cl`, the T/C (dose: 100.0 mg/kg/injection, schedule: Q01DX001 (ip), vehicle: saline) was 104 % of control, the T/C (dose: 100.0 mg/kg/injection, schedule: Q01DX009 (ip), vehicle: acetone) was 93 % of control and the T/C [1] was 109 % of control. The T/C (dose: 200.0 mg/kg/injection, schedule: Q01DX001 (ip), vehicle: saline) was 112 % of control, the T/C (dose: 200.0 mg/kg/injection, schedule: Q01DX009 (ip), vehicle: acetone) was 90 % of control and the T/C [2] was 103 % of control. For the same molecule, the T/C (dose: 400.0 mg/kg/injection, schedule: Q01DX001 (ip), vehicle: saline) was 102 % of control and the T/C (dose: 400.0 mg/kg/injection, schedule: Q04DX003 (ip), vehicle: acetone) was 93 % of control.
`O=C(c1ccccc1)C(Cl)C(O)(C(F)(F)F)C(F)(F)F` (stereo not given) was tested, and the T/C (dose: 50.0 mg/kg/injection, schedule: Q01DX009 (ip), vehicle: saline with Tween-80) was 96 % of control, the T/C (dose: 100.0 mg/kg/injection, schedule: Q01DX009 (ip), vehicle: saline with Tween-80) was 92 % of control and the T/C (dose: 200.0 mg/kg/injection, schedule: Q01DX009 (ip), vehicle: saline with Tween-80) was 108 % of control.
In the case of `CSc1ccc(NC(=O)c2ccc(C(=O)Nc3ccc(SC)cc3)cc2)cc1`, the T/C (dose: 100.0 mg/kg/injection, schedule: Q01DX009 (ip), vehicle: Klucel (hydroxypropylcellulose) (HPC)) is reported as 94 % of control, the T/C (dose: 200.0 mg/kg/injection, schedule: Q01DX009 (ip), vehicle: Klucel (hydroxypropylcellulose) (HPC)) is reported as 89 % of control and the T/C (dose: 400.0 mg/kg/injection, schedule: Q01DX009 (ip), vehicle: Klucel (hydroxypropylcellulose) (HPC)) is reported as 89 % of control.
In the case of `CN1c2cccc[c]2[Sn]([c]2ccccc2)([c]2ccccc2)[c]2ccccc21`, the T/C (dose: 100.0 mg/kg/injection, schedule: Q01DX001 (ip), vehicle: steriod suspending solution) is reported as 94 % of control, the T/C (dose: 200.0 mg/kg/injection, schedule: Q01DX001 (ip), vehicle: steriod suspending solution) is reported as 94 % of control and the T/C (dose: 400.0 mg/kg/injection, schedule: Q01DX001 (ip), vehicle: steriod suspending solution) is reported as 100 % of control.
`COc1ccc(C(=O)c2c[nH]c3c(OC)ccc(O)c23)cc1` was tested, and the T/C (dose: 6.25 mg/kg/injection, schedule: Q04DX002 (ip), vehicle: saline with Tween-80) was 95 % of control, the T/C (dose: 12.5 mg/kg/injection, schedule: Q04DX002 (ip), vehicle: saline with Tween-80) was 95 % of control and the T/C (dose: 25.0 mg/kg/injection, schedule: Q04DX002 (ip), vehicle: saline with Tween-80) was 91 % of control.
With `O=C(CSc1cc(Cl)ccc1Cl)Nc1cccc(Br)c1` the T/C (dose: 50.0 mg/kg/injection, schedule: Q04DX003 (ip), vehicle: other) was 86 % of control, the T/C (dose: 100.0 mg/kg/injection, schedule: Q04DX003 (ip), vehicle: other) was 90 % of control and 92 % of control and the T/C (dose: 200.0 mg/kg/injection, schedule: Q04DX003 (ip), vehicle: other) was 89 % of control. The T/C (dose: 400.0 mg/kg/injection, schedule: Q04DX003 (ip), vehicle: other) was 87 % of control.
In the case of `CCCC(C)C1(CCC)C(=O)NC(=S)NC1=O` (stereo not given), the T/C (dose: 75.0 mg/kg/injection, schedule: Q01DX001 (ip), vehicle: saline) is reported as 94 % of control, the T/C (dose: 150.0 mg/kg/injection, schedule: Q01DX001 (ip), vehicle: saline) is reported as 98 % of control and the T/C (dose: 300.0 mg/kg/injection, schedule: Q01DX001 (ip), vehicle: saline) is reported as 92 % of control.
